The values below come from publication PMC7139691, “Effect of Arginine on Chaperone-Like Activity of HspB6 and Monomeric 14-3-3ζ” (International Journal of Molecular Sciences, 2020).

The target in the assay is T1, HspB6 (Homo sapiens, UniProt O14558).
T1 construct: recombinant wild type; small oligomers of 55-60 kDa (dimers and tetramers)
T1 sequence (O14558 1-160): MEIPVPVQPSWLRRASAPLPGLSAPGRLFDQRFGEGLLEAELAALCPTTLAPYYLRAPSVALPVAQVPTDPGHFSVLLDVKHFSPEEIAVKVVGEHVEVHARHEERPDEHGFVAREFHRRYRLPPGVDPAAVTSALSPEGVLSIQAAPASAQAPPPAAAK
Briefly: intrinsic tryptophan fluorescence titration. Type of assay: binding. The settings on record: read-out: Kdiss.

With `N=C(N)NCCC[C@H](N)C(=O)O` [arginine], the Kd came out at 10 ± 3 mM.
